In this test the test system is LnCaP95 Parental cells. Put plainly: Cellular growth inhibition assay for LnCaP95 Parental cells, CellTiter-Glo. Format: cell-based. The note with it: CellTiterGlo assay, 6 days. As for the experimental part: T47D LnCap95 Parental and T47D LnCap95 AR-FL KO cells were seeded in 25 μL growth media in poly-d lysine coated black clear-bottom 384-well plates at 2500 cells/well with Phenol Red Free RPMI containing 10% charcoal stripped serum and 1% pen strep. Following seeding, plates were spun at 300×g for 30 seconds, then equilibrated to room temperature for 30 minutes, and moved into the incubator. 24 hours after seeding, compounds were titrated in 100% DMSO and diluted in growth medium. 25 μL of the compound/medium mixture was added to cells, bringing the total volume in each well to 50 μL. DMSO was used as a negative control.
After treatment, plates were spun at 300×g for 30 seconds, then cultured at 37° C. with 5% CO2 for 6 days in a humidified tissue culture incubator. On Day 6 of treatment, cell viability was quantified with CellTiter-Glo 2.0 reagent (Promega). Plates were equilibrated to room temperature for 30 minutes, then 25 μL of CellTiter-Glo 2.0 reagent was added to cells, bringing the total volume in each well to 75 μL. After reagent was added, plates were spun at 300×g for 30 seconds then mixed on a shaker for two minutes at 500 rpm and then incubated in dark at room temperature for 10 minutes. Following incubation, plates were spun at 300×g for 30 seconds, sealed with an optical adhesive cover, and luminescence readings were measured with an EnVision Plate Reader. […]

For the compound `Cc1sc2c(c1C)C(c1ccc(OC3CC4(CCN(c5ncc(C(=O)N[C@H]6C(C)(C)[C@H](Oc7ccc(C#N)c(Cl)c7)C6(C)C)cn5)CC4)C3)cc1)=N[C@@H](Cc1ncco1)c1nnc(C)n1-2` [Compound I-49, N-[3-(3-chloro-4-cyano-phenoxy)-2,2,4,4-tetramethyl-cyclobutyl]-2-[2-[4-[(9S)-4,5,13-trimethyl-9-(oxazol-2-ylmethyl)-3-thia-1,8,11,12-tetrazatricyclo[8.3.0.02,6]trideca-2(6),4,7,10,12-pentaen-7-yl]phenoxy]-7-azaspiro[3.5]nonan-7-yl]pyrimidine-5-carboxamide], the “activity in parental LnCaP95 cells compared to AR knockout cells” value (parental vs LnCaP95 AR-FL KO cells) was “enhanced activity in parental LnCaP95 cells”. Further, the GI50 (LNCaP-95, 144 h, parental LnCaP95 cells) was determined as 37 nM.

By GI50 is commonly meant the concentration that inhibits growth by half.

(Values after patent US20260062422A1 (Halda Therapeutics OpCo, Inc., priority 2022, published 2026).)
